Results on 21 compounds are retold here after patent US20040006236A1, “Diaminopropionic acid derivatives” (priority 1999, published 2004).

T1 sequence (P20701 26-1170): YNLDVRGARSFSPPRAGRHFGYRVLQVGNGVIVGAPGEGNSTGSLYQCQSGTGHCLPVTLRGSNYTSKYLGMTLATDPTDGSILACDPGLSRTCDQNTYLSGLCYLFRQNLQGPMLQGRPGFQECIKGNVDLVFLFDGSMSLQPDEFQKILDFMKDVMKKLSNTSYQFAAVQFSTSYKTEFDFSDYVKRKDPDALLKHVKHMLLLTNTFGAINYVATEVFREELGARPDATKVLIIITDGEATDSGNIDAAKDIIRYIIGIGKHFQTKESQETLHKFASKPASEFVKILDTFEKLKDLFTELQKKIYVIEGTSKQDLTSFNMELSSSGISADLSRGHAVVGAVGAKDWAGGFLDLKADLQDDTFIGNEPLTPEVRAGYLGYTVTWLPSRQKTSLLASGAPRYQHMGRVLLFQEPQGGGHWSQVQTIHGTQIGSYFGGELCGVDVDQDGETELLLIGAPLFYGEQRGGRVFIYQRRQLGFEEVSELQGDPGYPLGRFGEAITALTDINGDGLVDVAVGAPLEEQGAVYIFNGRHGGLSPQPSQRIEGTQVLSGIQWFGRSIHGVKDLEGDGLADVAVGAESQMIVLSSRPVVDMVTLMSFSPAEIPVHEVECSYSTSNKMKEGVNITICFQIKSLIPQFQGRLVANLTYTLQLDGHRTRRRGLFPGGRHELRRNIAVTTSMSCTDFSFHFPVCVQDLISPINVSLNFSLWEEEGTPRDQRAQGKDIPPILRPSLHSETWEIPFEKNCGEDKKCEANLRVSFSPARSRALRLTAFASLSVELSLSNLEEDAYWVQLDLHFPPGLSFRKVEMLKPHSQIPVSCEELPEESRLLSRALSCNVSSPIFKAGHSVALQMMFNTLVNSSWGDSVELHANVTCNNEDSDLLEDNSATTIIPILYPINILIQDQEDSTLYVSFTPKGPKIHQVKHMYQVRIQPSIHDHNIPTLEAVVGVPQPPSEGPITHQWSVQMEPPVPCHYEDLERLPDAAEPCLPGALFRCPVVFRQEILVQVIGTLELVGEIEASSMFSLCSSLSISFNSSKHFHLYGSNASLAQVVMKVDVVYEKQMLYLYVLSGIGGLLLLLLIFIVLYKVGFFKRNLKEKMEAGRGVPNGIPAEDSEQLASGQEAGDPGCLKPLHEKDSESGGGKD
T1 sequence (P05107 23-769): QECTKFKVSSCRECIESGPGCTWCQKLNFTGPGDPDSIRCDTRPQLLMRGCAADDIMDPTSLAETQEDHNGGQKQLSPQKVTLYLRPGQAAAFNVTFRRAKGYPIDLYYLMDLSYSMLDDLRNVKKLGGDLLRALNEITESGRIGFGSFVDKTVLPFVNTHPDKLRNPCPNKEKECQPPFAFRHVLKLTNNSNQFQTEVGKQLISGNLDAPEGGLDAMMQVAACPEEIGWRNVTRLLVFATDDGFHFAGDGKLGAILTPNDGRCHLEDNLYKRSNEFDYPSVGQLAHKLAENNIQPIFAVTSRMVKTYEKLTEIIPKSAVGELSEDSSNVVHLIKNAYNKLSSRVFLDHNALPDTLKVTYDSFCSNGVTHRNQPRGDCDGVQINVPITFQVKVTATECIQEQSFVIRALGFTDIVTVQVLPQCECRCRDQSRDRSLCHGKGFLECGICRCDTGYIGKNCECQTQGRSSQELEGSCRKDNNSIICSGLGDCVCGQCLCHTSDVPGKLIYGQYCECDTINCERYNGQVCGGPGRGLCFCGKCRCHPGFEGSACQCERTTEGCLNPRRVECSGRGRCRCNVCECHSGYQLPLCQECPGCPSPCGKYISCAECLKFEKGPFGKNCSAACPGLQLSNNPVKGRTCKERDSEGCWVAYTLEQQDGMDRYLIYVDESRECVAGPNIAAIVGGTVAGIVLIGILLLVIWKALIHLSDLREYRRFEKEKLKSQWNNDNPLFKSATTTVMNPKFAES

The assay has as its target T1, LFA-1 binding to immobilized ICAM-1 (Homo sapiens, UniProt P05107+P20701).
T1 construct: made in house; host or cells: transfected 293 cells (LFA-1)
Nature of the assay: LFA-1/ICAM-1 protein-protein assay (solid-phase ELISA). Particulars: read-out: LFA-1/ICAM-1 Protein-Protein Assay IC50. The gist of the method: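 Human 5dICAM-Ig (ICAM-1 extracellular domain–IgG Fc) coated on plates; membrane-bound LFA-1 from transfected 293 cells (280 ng/mL) added with compound in Mn2+-containing HEPES buffer pH 7.2, 2 h at 37° C. Bound LFA-1 detected via anti-β2 antibody and HRP/TMB at 450 nm; IC50s determined.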
On the technique in general: ELISA stands for enzyme-linked immunosorbent assay.
Take `Cc1cccc(C(=O)NC[C@H](NC(=O)c2ccc(C(=O)NCc3cccc(O)c3)cc2Cl)C(=O)O)n1` [Example 163]: the IC50 was determined as 3.2 nM.

`O=C(NCc1cccc(O)c1)c1ccc(C(=O)N[C@@H](CNC(=O)c2cccnc2)C(=O)O)c(Cl)c1` [Example 165]: the IC50 is 1.3 nM.

As for `C[C@@H](NC(=O)c1cc(Cl)c(C(=O)N[C@@H](CNC(=O)c2cccs2)C(=O)O)c(Cl)c1)c1cccc2ccccc12` [Example 346, N-[2,6-dichloro-4-[[[(1R)-1-(1-naphthalenyl)ethyl]amino]carbonyl]benzoyl]-3-[(thiophene-2-carbonyl)amino]-L-alanine], the IC50 is 2.1 nM.

Consider `C[C@@H](NC(=O)c1cc(Cl)c(C(=O)N[C@@H](CNC(=O)c2ccccc2)C(=O)O)c(Cl)c1)c1cccc2ccccc12` [Example 347], for which the IC50 turned out to be 3.4 nM.

Consider `O=C(NCc1cccc(O)c1)c1cc(Cl)c(C(=O)N[C@@H](CNC(=O)c2cccc(F)c2)C(=O)O)c(Cl)c1` [Example 349], for which the IC50 worked out at 1.1 nM.

Take `O=C(NCc1cccc(O)c1)c1cc(Cl)c(C(=O)N[C@@H](CNC(=O)c2cccc(O)c2)C(=O)O)c(Cl)c1` [Example 350]: the IC50 was determined as 1 nM.

Consider `COc1ccc(C(=O)NC[C@H](NC(=O)c2c(Cl)cc(C(=O)NCc3cccc(O)c3)cc2Cl)C(=O)O)cc1O` [Example 351], for which the IC50 is 0.8 nM.

With `O=C(NCc1cccc(O)c1)c1cc(Cl)c(C(=O)N[C@@H](CNC(=O)c2sccc2Br)C(=O)O)c(Cl)c1` [Example 353], the IC50 came to 1.6 nM.

Turning to `O=C(NCc1cccc(O)c1)c1cc(Cl)c(C(=O)N[C@@H](CNC(=O)c2ccc(Br)s2)C(=O)O)c(Cl)c1` [Example 354], the IC50 amounted to 1 nM.

For `Cc1ccc(C(=O)NC[C@H](NC(=O)c2c(Cl)cc(C(=O)NCc3cccc(O)c3)cc2Cl)C(=O)O)s1` [Example 358], the IC50 turned out to be 0.2 nM.

Take `O=C(NCc1cccc(O)c1)c1ccc(C(=O)N[C@@H](CNS(=O)(=O)c2ccccc2)C(=O)O)c(Cl)c1` [Example 360, 3-(phenylsulfonylamino)-N-[2-chloro-4-[[[(3-hydroxyphenyl)methyl]amino]carbonyl]benzoyl]-L-alanine]: the IC50 was 5.2 nM.

In the case of `CC(=O)Nc1nc(C)c(S(=O)(=O)NC[C@H](NC(=O)c2ccc(C(=O)N[C@H](C)c3cccc4ccccc34)cc2Cl)C(=O)O)s1` [Example 362], the IC50 was 8.8 nM.

Consider `O=C(NCc1ccc(C(=O)N[C@@H](CNC(=O)c2ccccc2)C(=O)O)c(Cl)c1)c1cccc(O)c1` [Example 364, N-[2-chloro-4-[[(3-hydroxyphenyl)carbonyl]aminomethyl]benzoyl]-3-benzoylamino-L-alanine], for which the IC50 came to 7.7 nM.

In the case of `O=C(NC[C@H](NC(=O)c1ccc(CNC(=O)c2ccccc2O)cc1Cl)C(=O)O)c1ccccc1` [Example 365], the IC50 stood at 18 nM.

With `O=C(NCc1ccc(C(=O)N[C@@H](CNC(=O)c2ccccc2)C(=O)O)c(Cl)c1)c1cc(O)cc(O)c1` [Example 366], the IC50 amounted to 3.4 nM.

As to `O=C(NCc1ccc(C(=O)N[C@@H](CNC(=O)c2ccccc2)C(=O)O)c(Cl)c1)c1ccc2[nH]ccc2c1` [Example 368], the IC50 is 11 nM.

On to `O=C(NCc1ccc(C(=O)N[C@@H](CNC(=O)c2ccccc2)C(=O)O)c(Cl)c1)c1ccc2cc[nH]c2c1` [Example 369], for which the IC50 was 8.5 nM.

As to `N=C(N)NC[C@H](NC(=O)c1ccc(C(=O)NCc2cccc(O)c2)cc1Cl)C(=O)O` [Example 371, N-[2-chloro-4-[[[(3-hydroxyphenyl)methyl]amino]-carbonyl]benzoyl]-3-(aminoiminomethyl)amino-L-alanine], the IC50 was determined as 10 nM.

As for `O=C(NC[C@H](NC(=O)c1ccc(/C=C/Cc2ccccc2)cc1Cl)C(=O)O)c1cccs1` [Example 373, N-[2-chloro-4-(3-phenyl-1-propenyl)benzoyl]-3-(thiophene-2-carbonyl)amino-L-alanine], the IC50 amounted to 7.7 nM.

Turning to `O=C(NC[C@H](NC(=O)c1ccc(C(=O)[C@H]2C[C@@H]2c2ccccc2)cc1Cl)C(=O)O)c1cccs1` [Example 377], the IC50 is 19 nM.

For the compound `O=C(CCc1ccccc1)c1ccc(C(=O)N[C@@H](CNC(=O)c2cccs2)C(=O)O)c(Cl)c1` [Example 378], the IC50 turned out to be 9.7 nM.
